In US9469648B2, “Reversal of drug-induced neuromuscular block using novel molecular containers” (University of Maryland, College Park, priority 2010, dated 2016):
Like-named read-outs stand apart in the source and are kept apart here.

Experiments:
[1] = Binding of Motor1 and Motor2 with Ketamine (Rhodamine 6G indicator competition, UV-VIS); details: Rhodamine 6G displacement titration, 20 mM phosphate buffer pH 7.4
[2] = Binding of Motor1 and Motor2 with Etomidate
[3] = Self-association study by 1H NMR at varied concentration; assay type: physicochemical; details: 20 mM NaD2PO4, pD=7.4, 1H NMR
HEK293 = test: AK (adenylate kinase release) cytotoxicity assay, HEK293; assay type: cell-based
Source text: FIG. 27. Toxicology of Motor1 using the human kidney cell line HEK293. Results from (A) MTS assay (B) AK assay. Untreated population (UT), Distilled water (D), Erythromycin (E), Erythromycin Estolate (EE).
(§1) Toxicity Studies: To measure the cellular toxicity of Motor1 we use two complementary assays: an MTS (CellTiter 96 AQueous Kit®) assay that measures cellular metabolism, and a cytotoxicity assay (Toxilight®BioAssay Kit) that measures cell death via the release of the cytosolic enzyme adenylate kinase into the supernatant. Both assays were used with two different cell lines commonly used in drug toxicity studies, HEK293 and HepG2 cell lines. HEK293, a human kidney cell line, is used to assess the effect of the drug candidate on the renal system and HepG2, a human hepatocyte cell line, is used to assess the response of liver cells where drugs are metabolized. Both assays included the use of an untreated population, and cells treated with distilled water, erythromycin and erythromycin estolate. Erythromycin is a commercially available drug widely used to treat bacterial infections. […] […].
(§2) Both cell lines were incubated with the containers (0.01, 0.1, 1 and 10 mM) for 2 days prior to analysis with the two assays. Relative absorbance and luminescence data was normalized to percent cell viability (MTS) and cell death (AK). For the MTS assay, the untreated cells were set at 100% cell viability while the cell population treated with distilled water was set at a 100% cell death for the AK assay.

HepG2 = assay type: cell-based; details: untreated population 60%
Source text: FIG. 28. Toxicology of Motor1 using the human liver cell line HepG2. Results from (A) MTS assay (B) AK assay. Untreated population (UT), Distilled water (D), Erythromycin (E), Erythromycin Estolate (EE).
as §1, §2

[4] = Tolerance in mice after tail vein injection (body weight); assay type: in vivo; details: tail vein injection at day 0, 4 and 8, weight monitored
Description: FIG. 30. […] Indicated amounts of Motor1 were injected into the tail vein of outbred Swiss Webster mice at day 0, 4 and 8. The weight of each mouse was monitored over time and there were 5 mice per experimental group.
Indicated amounts of Motor1 were injected into the tail vein of outbred Swiss Webster mice at day 0, 4 and 8. The weight of each mouse was monitored over time and there were 5 mice per experimental group.

[5] = system: rocuronium-induced neuromuscular block; test: Reversal of rocuronium-induced neuromuscular block in anesthetized rats; assay type: in vivo; details: for Time until normal breathing recovered: rocuronium 3.5 mg/kg, placebo 720 s; for Time until quadriceps femoris twitch height normalized: rocuronium, placebo 960 s
Description: (§3) Spontaneous breathing was maintained during surgery and if possible according to normal protocol. Rats lay in the supine position with the head supported in a neutral position in the midline on a soft piece of tissue. The left femoral vein and artery were cannulated for drug infusion and blood sampling. […] Corning, N.Y., USA) and continuous measurement of blood pressure (PowerLab; ADInstruments, Colorado Springs, Mo.) and heart rate were performed. If mechanical ventilation was necessary animals were ventilated through a tracheostomy (SAR-830; CWE, Ardmore, Pa., USA). Rectal temperature was kept at 37.0±0.1° C. using a thermostatic heating pad (FHC, Bowdoinham, Me.). Level of anesthesia was maintained throughout the experiment to eliminate cardiovascular response to tail pinch. In all treatment groups, systemic physiological parameters were kept well within normal range. The right leg was shaved and the femoral nerve was stimulated supramaximally with subcutaneous needle electrodes, and the evoked response of the quadriceps femoris muscle was measured by accelerometry, with the TOF-Watch SX Monitor (Organon Ireland Ltd, a part of Schering-Plough Corporation, Dublin, Ireland), as described previously (Fassbender et al, Anesthesiology 2007). The transducer was fixed to the skin ventromedially at the proximal end of the thigh, next to the tibial tuberosity (insertion point of the patellar ligament). […] Endpoints included time to recovery of spontaneous breathing, twitch height as well as TOF-ratio.

[6] = system: cisatracurium-induced neuromuscular block; test: Reversal of cisatracurium-induced neuromuscular block in anesthetized rats; assay type: in vivo; details: for Time until normal breathing recovered / Time until quadriceps femoris twitch height normalized: cisatracurium; for Time until normal breathing recovered: placebo 750 (17) s, means (SD); for Time until quadriceps femoris twitch height normalized: placebo 1002 (122) s
Description: as §3

[7] = rat, in vivo
[8] = rat, in vivo; remark: listed apart in the source
[9] = Binding affinities of compounds towards Motor2
[10] = Binding constants of Motor1 towards guests; details: host Motor1
ketamine anesthesia = test: Reversal of ketamine anesthesia in rats; assay type: in vivo
[11] = ketamine anesthesia, Motor2 200 mg

CC12N3Cc4c(OCCCS(=O)(=O)[O-])ccc(OCCCS(=O)(=O)[O-])c4CN1C(=O)N1CN4C(=O)N5CN6C(=O)N7CN8C(=O)N9Cc%10c(OCCCS(=O)(=O)[O-])ccc(OCCCS(=O)(=O)[O-])c%10CN%10C(=O)N(CN%11C(=O)N(CN%12C(=O)N(CN(C3=O)C12C)C4C%125)C6C%117)C8(C)C%109C.[Na+].[Na+].[Na+].[Na+] (centres unmarked) [Motor1]
Binding constant (Ka) with Ketamine [1]: 39020 M⁻¹
Binding constant with Etomidate [2]: 35318 M⁻¹
Ka, two-fold self-association model [3]: 47 M⁻¹
Percent cell death (AK) (HEK293; HEK293, all concentrations (0.01, 0.1, 1 and 10 mM)): below 5%
% cell death (AK) (HepG2; HepG2, 0.01 mM): 55%
% cell death (AK) (HepG2; HepG2, 0.1 mM): 56%
% cell death (AK) (HepG2; HepG2, 1 mM): 50%
% cell death (AK) (HepG2; HepG2, 10 mM): 17%
Tolerance in mice [4]: well tolerated
Mean recovery of spontaneous breathing ([5]; complete rocuronium-induced block, 90 mg as printed): 723 s
Mean recovery of spontaneous breathing ([5]; complete rocuronium-induced block, dose not given): 10 s
Reversal of rocuronium (in words) ([5]; rats, Motor1 10, 20, 30 mg): reversed rocuronium effectively, in a dose-dependent fashion
Time until normal breathing recovered ([5]; Motor1 10 mg): 120 ± 15 s
Time until normal breathing recovered ([5]; Motor1 20 mg): 15 ± 5 s
Time until normal breathing recovered ([5]; Motor1 30 mg): 8 ± 3 s
Time until quadriceps femoris twitch height normalized ([5]; Motor1 10 mg): 240 s
Time until quadriceps femoris twitch height normalized ([5]; Motor1 20 mg): 120 s
Time until quadriceps femoris twitch height normalized ([5]; Motor1 30 mg): 60 s
Time until normal breathing recovered ([6]; 30 mg Motor1): 28 (6) s
Time until normal breathing recovered ([6]; 60 mg Motor1): 11 (4) seconds
Time until quadriceps femoris twitch height normalized ([6]; first Motor1 dose listed (dose not given; 15 mg)): 266 (17) s
Time until quadriceps femoris twitch height normalized ([6]; second Motor1 dose listed (30 mg)): 130 (14) s
Time until quadriceps femoris twitch height normalized ([6]; third Motor1 dose listed (60 mg)): 68 (10) s
Percent hemolysis (human erythrocytes): ≤ 20%
Toxicity to human erythrocytes (overall) (human erythrocytes): non-toxic
Arterial blood gas parameters pH, pCO2, and pO2 [7]: did not change
Heart rate and mean arterial blood pressure [7]: did not change
Side effects on arterial blood-gas analysis, EKG, arterial blood pressure, heart rate [7]: did not have any side effects
Motor1 concentration in the urine relative to plasma [8]: equals concentration in the plasma

Cyclohexanediamine
Ka (M^−1) with Motor2 ([9]; host Motor2): 2.1 ± 0.2 × 10^8 M^−1

CC[N+](CC)(CC)CCOc1cccc(OCC[N+](CC)(CC)CC)c1OCC[N+](CC)(CC)CC [gallamine]
Ka, binding constant of Motor1 towards guest [10]: 6.2 ± 0.5 × 10^6
Ka (M^−1) with Motor2 [9]: 3.2 ± 0.4 × 10^8 M^−1

COc1cc2c3cc1Oc1cc(ccc1O)C[C@@H]1c4c(cc(OC)c(O)c4Oc4ccc(cc4)C[C@@H]3N(C)CC2)CC[N+]1(C)C [tubocurarine]
Ka, binding constant of Motor1 towards guest [10]: 4.7 ± 0.2 × 10^5

Nc1ccc2cc3ccc(N)cc3nc2c1 [Proflavin]
Ka (M^−1) with Motor2 ([9]; host Motor2): 7.8 ± 0.8 × 10^8 M^−1

COc1ccc(CC2c3cc(OC)c(OC)cc3CC[N+]2(C)CCC(=O)OCCCCCOC(=O)CC[N+]2(C)CCc3cc(OC)c(OC)cc3C2Cc2ccc(OC)c(OC)c2)cc1OC (centres unmarked) [Atracurium besilate]
Ka (M^−1) with Motor2 ([9]; host Motor2): 1.0 ± 0.1 × 10^9 M^−1

CC(=O)O[C@H]1C[C@@H]2CC[C@@H]3[C@H](CC[C@@]4(C)[C@H]3C[C@H]([N+]3(C)CCCCC3)[C@@H]4OC(C)=O)[C@@]2(C)C[C@@H]1N1CCCCC1 [vecuronium]
Ka, binding constant of Motor1 towards guest [10]: 5.8 ± 0.9 × 10^6
Ka (M^−1) with Motor2 [9]: 1.6 ± 0.2 × 10^9 M^−1

CC12N3Cc4c(c(OCCCS(=O)(=O)[O-])c5ccccc5c4OCCCS(=O)(=O)[O-])CN1C(=O)N1CN4C(=O)N5CN6C(=O)N7CN8C(=O)N9Cc%10c(c(OCCCS(=O)(=O)[O-])c%11ccccc%11c%10OCCCS(=O)(=O)[O-])CN%10C(=O)N(CN%11C(=O)N(CN%12C(=O)N(CN(C3=O)C12C)C4C%125)C6C%117)C8(C)C%109C.[Na+].[Na+].[Na+].[Na+] (centres unmarked) [Motor2]
Binding constant (Ka) with Ketamine [1]: 193490 M⁻¹
Binding constant with Etomidate [2]: 36812 M⁻¹
Ka, two-fold self-association model [3]: 624 M⁻¹
Mean time to recovery of the twitch height to 90% ([5]; complete rocuronium-induced block, 90 mg, placebo 19 minutes): 2.5 min
Speed of reversal of cisatracurium, twitch height recovery (comparison) ([6]; low-dose Motor2 versus high-dose Motor1): reverses the benzylisoquinolinum cisatracurium faster than high-dose 1
Reversal of ketamine anesthesia (in words) (ketamine anesthesia; ketamine 1500 μg/kg/min, Motor2 200 mg at 60 minutes): reverses ketamine anesthesia
Electroencephalogram (EEG) (ketamine anesthesia; [11]): wakefulness-like electrical activity
Respiratory rate and arterial blood pressure (ketamine anesthesia; [11]): increased
Time until the rat woke up after injection (ketamine anesthesia; steady-state ketamine infusion, Motor2 200 mg): ≤ 2 min
Side effects on arterial blood-gas analysis, EKG, arterial blood pressure, heart rate [7]: did not have any side effects

CC[C@H]1OC(=O)[C@H](C)[C@@H](O[C@H]2C[C@@](C)(OC)[C@@H](O)[C@H](C)O2)[C@H](C)[C@@H](O[C@@H]2O[C@H](C)C[C@H](N(C)C)[C@H]2O)[C@](C)(O)C[C@@H](C)C(=O)[C@H](C)[C@@H](O)[C@]1(C)O [Erythromycin]
Percent cell death (AK) (HEK293; HEK293, 1 mM): 25%

CCC(=O)O[C@H]1[C@H](O[C@@H]2[C@@H](C)[C@H](O[C@H]3C[C@@](C)(OC)[C@@H](O)[C@H](C)O3)[C@@H](C)C(=O)O[C@H](CC)[C@@](C)(O)[C@H](O)[C@@H](C)C(=O)[C@H](C)C[C@@]2(C)O)O[C@H](C)C[C@@H]1N(C)C [Erythromycin estolate]
Percent cell death (AK) (HEK293; human, 2 days, 1 mM): 49%

COc1ccc(CC2c3cc(OC)c(OC)cc3CC[N+]2(C)CCC(=O)OCCCCCOC(=O)CC[N+]2(C)CCc3cc(OC)c(OC)cc3C2Cc2ccc(OC)c(OC)c2)cc1OC (centres unmarked) [atracurium]
Ka, binding constant of Motor1 towards guest [10]: 1.4 ± 0.1 × 10^6
